The text below walks through data of article PMC117120 (BMC Biochemistry, 2002).

Assay [1] concerns the target T1, K153A mutant mouse 5-HT3ASR (Mus musculus, UniProt P23979, K154A).
T1 sequence (P23979 24-483 isoform P23979-2 K154A): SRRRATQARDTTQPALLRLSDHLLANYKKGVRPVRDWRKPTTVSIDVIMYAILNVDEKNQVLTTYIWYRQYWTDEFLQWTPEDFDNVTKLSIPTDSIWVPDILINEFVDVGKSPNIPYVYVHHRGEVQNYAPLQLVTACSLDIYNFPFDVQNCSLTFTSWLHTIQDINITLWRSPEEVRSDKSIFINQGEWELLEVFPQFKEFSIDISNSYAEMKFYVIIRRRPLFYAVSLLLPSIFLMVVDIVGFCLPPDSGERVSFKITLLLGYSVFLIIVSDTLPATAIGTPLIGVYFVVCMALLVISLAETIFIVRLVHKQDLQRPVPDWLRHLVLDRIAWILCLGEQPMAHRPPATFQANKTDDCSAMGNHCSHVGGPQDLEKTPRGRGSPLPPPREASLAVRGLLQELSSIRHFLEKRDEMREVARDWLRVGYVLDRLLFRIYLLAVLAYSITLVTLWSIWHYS
The assay can be described thus: [^3H]granisetron saturation binding, K153A receptor. The settings on record: ± SE.

In assay [2] the target is T2, Q150A mutant mouse 5-HT3ASR (Mus musculus, UniProt P23979, Q151A).
T2 sequence (P23979 24-483 isoform P23979-2 Q151A): T1 sequence (P23979 24-483 isoform P23979-2 K154A) with Q128A, A131K
The experiment in a line: [^3H]granisetron saturation binding, Q150A receptor. The settings on record: ± SE.

In assay [3] the target is T3, Y142A mutant mouse 5-HT3ASR (Mus musculus, UniProt P23979, Y143A).
T3 sequence (P23979 24-483 isoform P23979-2 Y143A): T1 sequence (P23979 24-483 isoform P23979-2 K154A) with Y120A, A131K
The assay can be described thus: [^3H]granisetron saturation binding, Y142A receptor. The settings on record: ± SE.

Assay [4] deals with T4, E148A mutant mouse 5-HT3ASR (Mus musculus, UniProt P23979, E149A).
T4 sequence (P23979 24-483 isoform P23979-2 E149A): T1 sequence (P23979 24-483 isoform P23979-2 K154A) with E126A, A131K
The assay can be described thus: [^3H]granisetron saturation binding, E148A receptor.

The target in assay [5] is T5, Y152A mutant mouse 5-HT3ASR (Mus musculus, UniProt P23979, Y153A).
T5 sequence (P23979 24-483 isoform P23979-2 Y153A): T1 sequence (P23979 24-483 isoform P23979-2 K154A) with Y130A, A131K
The assay can be described thus: [^3H]granisetron saturation binding, Y152A receptor. Conditions: ± SE.

Numbering of substitutions follows the chain as printed. “And” between values parts separate entries of the source, which are not always exact repeats. Equal values may be shown once.

For the compound `CN1C2CCCC1CC(NC(=O)c1nn(C)c3ccccc13)C2` (stereo not drawn) [[^3H]granisetron], the Bmax in assay [1] is 0.30 pmol/mg protein and 0.30 ± .08 pmol/mg protein; in assay [2] it was 0.56 ± .09 pmol/mg protein; in assay [3] it was 0.97 ± .14 pmol/mg protein; in assay [4] (E148A, ± SE), 5.5 pmol/mg protein and 5.5 ± 1.2 pmol/mg protein; in assay [5], 0.59 ± .10 pmol/mg protein. The “Hill coefficient (n)” value in assay [1] came to 1.51 ± 0.17; in assay [3], 1.6 ± 0.27; in assay [4] (E148A, ± SE) it was 0.93 ± 0.19. The “decrease in binding affinity (increased Kd), mutant vs wildtype” value in assay [4] (E148A vs wildtype) was found to be 5.3 fold.
